These compounds were tested against T1, hGPR119 (Homo sapiens, UniProt Q8TDV5) (assay: In vitro cyclic AMP assay (Cisbio dynamic 2 HTRF kit) in CHO-hGPR119 cells). Details: 1 h, cAMP, compound at 1 μM, 60 min, read-out: Induction (% induction at 1 μM).
T1 construct: expressed in transfected cells; host or cells: CHO
T1 sequence (Q8TDV5 1-335): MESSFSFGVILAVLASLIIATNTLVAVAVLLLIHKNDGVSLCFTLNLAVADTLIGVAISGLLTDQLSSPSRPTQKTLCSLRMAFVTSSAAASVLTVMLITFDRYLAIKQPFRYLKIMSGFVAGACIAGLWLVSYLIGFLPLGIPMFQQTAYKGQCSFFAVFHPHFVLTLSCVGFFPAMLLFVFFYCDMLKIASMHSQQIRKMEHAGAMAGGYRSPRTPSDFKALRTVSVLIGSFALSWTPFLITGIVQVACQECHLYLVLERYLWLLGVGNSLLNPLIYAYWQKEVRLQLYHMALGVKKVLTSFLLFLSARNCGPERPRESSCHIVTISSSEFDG
Format: cell-based
Protocol: cAMP measurements were done using Cisbio dynamic 2 HTRF kit according to the manufacturer's protocol. Briefly, CHO-hGPR119 cells were plated at a cell density of 5000 cells/well/5 μl into a white small volume 384 well plate. The final concentrations of IBMX and DMSO used were 1 mM and 0.5% respectively. Cells were treated with various concentrations of the test compound for 60 min at room temperature. Cells were lysed by buffer containing Anti-cAMP antibody and d2-cAMP reagents and incubated for 1 hour at room temperature. HTRF was measured at 337 nm excitation and emission wavelengths of 665 nm and 620 nm on a microplate reader (Flurostar, BMG Labtech). Graphpad prism software was utilized for EC50 determinations.

SMILES | activation at 1 µM [%]
C[C@H](Oc1nc2ccc(-c3ccc(S(C)(=O)=O)nc3)nc2s1)C1CCN(c2nc(C(F)(F)F)no2)CC1 (stereo in doubt) [Compound 1145, 2-(1-(1-(3-(trifluoromethyl)-1,2,4-oxadiazol-5-yl)piperidin-4-yl)ethoxy)-5-(6-(methylsulfonyl)pyridin-3-yl)thiazolo[5,4-b]pyridine] | 65
CC(C)c1noc(N2CCC(C(C)Oc3nc4ccc(-c5ccc(S(=O)(=O)C6CC6)nc5)nc4s3)CC2)n1 (stereo in doubt) [Compound 1164, 2-((S)-1-(1-(3-isopropyl-1,2,4-oxadiazol-5-yl)piperidin-4-yl)ethoxy)-5-(6-(cyclopropylsulfonyl)pyridin-3-yl)thiazolo[5,4-b]pyridine] | 72
Cc1nc(S(C)(=O)=O)ccc1-c1ccc2nc(OC(C)C3CCN(c4nc(C(C)C)no4)CC3)sc2n1 (stereo in doubt) [Compound 1168, 2-((S)-1-(1-(3-isopropyl-1,2,4-oxadiazol-5-yl)piperidin-4-yl)ethoxy)-5-(2-methyl-6-(methylsulfonyl)pyridin-3-yl)thiazolo[5,4-b]pyridine] | 22
CC(C)c1noc(C2CCN(c3ccc4nc(-c5ccc(S(C)(=O)=O)cc5)sc4n3)CC2)n1 [Compound 1003, 3-isopropyl-5-(1-(2-(4-(methylsulfonyl)phenyl)thiazolo[5,4-b]pyridin-5-yl)piperidin-4-yl)-1,2,4-oxadiazole] | 29
CC(C)c1noc(C2CCN(c3nc4ccc(-c5ccc(S(C)(=O)=O)cc5)nc4s3)CC2)n1 [Compound 1004, 3-isopropyl-5-(1-(5-(4-(methylsulfonyl)phenyl)thiazolo[5,4-b]pyridin-2-yl)piperidin-4-yl)-1,2,4-oxadiazole] | 45
CC(C)c1noc(N2CCC(Oc3nc4ccc(Oc5ccc(S(C)(=O)=O)cc5)nc4s3)CC2)n1 [Compound 1005, 3-isopropyl-5-(4-((5-(4-(methylsulfonyl)phenoxy)thiazolo[5,4-b]pyridin-2-yl)oxy)piperidin-1-yl)-1,2,4-oxadiazole] | 6
CC(C)c1noc(N2CCC(COc3nc4ccc(-c5ccc(S(C)(=O)=O)cc5)nc4s3)CC2)n1 [Compound 1006, 3-isopropyl-5-(4-(((5-(4-(methylsulfonyl)phenyl)thiazolo[5,4-b]pyridin-2-yl)oxy)methyl)piperidin-1-yl)-1,2,4-oxadiazole] | 31
CC(C)c1noc(N2CCC(Oc3nc4ccc(-c5ccc(S(C)(=O)=O)cc5)nc4s3)CC2)n1 [Compound 1007, 3-isopropyl-5-(4-((5-(4-(methylsulfonyl)phenyl)thiazolo[5,4-b]pyridin-2-yl)oxy)piperidin-1-yl)-1,2,4-oxadiazole] | 39
CCc1cnc(N2CCN(c3nc4ccc(-c5ccc(S(C)(=O)=O)cc5)nc4s3)CC2)nc1 [Compound 1008, 2-(4-(5-ethylpyrimidin-2-yl)piperazin-1-yl)-5-(4-(methylsulfonyl)phenyl)thiazolo[5,4-b]pyridine] | 3
CS(=O)(=O)c1ccc(-c2nc3ccc(OCC4CCN(Cc5ccccc5)CC4)nc3s2)cc1 [Compound 1009, 5-((1-benzylpiperidin-4-yl)methoxy)-2-(4-(methyslulfonyl)phenyl)thiazolo[5,4-b]pyridine] | 5
CCc1cnc(N2CCN(c3nc4ccc(Oc5ccc(S(C)(=O)=O)cc5)nc4s3)CC2)nc1 [Compound 1010, 2-(4-(5-ethylpyrimidin-2-yl)piperazin-1-yl)-5-(4-(methylsulfonyl)phenoxy)thiazolo[5,4-b]pyridine] | 8
CC(C)OC(=O)N1CC=C(c2nc3ccc(-c4ccc(S(C)(=O)=O)cc4)nc3s2)CC1 [Compound 1011, isopropyl 4-(5-(4-(methylsulfonyl)phenyl)thiazolo[5,4-b]pyridin-2-yl)-5,6-dihydropyridine-1(2H)-carboxylate] | 19
CC(C)OC(=O)N1CCN(c2nc3ccc(-c4ccc(S(C)(=O)=O)cc4)nc3s2)CC1 [Compound 1012, isopropyl 4-(5-(4-(methylsulfonyl)phenyl)thiazolo[5,4-b]pyridin-2-yl)piperazine-1-carboxylate] | 5
CC(C)OC(=O)N1CCC(c2nc3ccc(-c4ccc(S(C)(=O)=O)cc4)nc3s2)CC1 [Compound 1013, isopropyl 4-(5-(4-(methylsulfonyl)phenyl)thiazolo[5,4-b]pyridin-2-yl)piperidine-1-carboxylate] | 11
CCc1cnc(N2CCC(C(=O)Nc3nc4ccc(-c5ccc(S(C)(=O)=O)cc5)nc4s3)CC2)nc1 [Compound 1014, 1-(5-ethylpyrimidin-2-yl)-N-(5-(4-(methylsulfonyl)phenyl)thiazolo[5,4-b]pyridin-2-yl)piperidine-4-carboxamide] | 5
CS(=O)(=O)c1ccc(-c2ccc3nc(C4=CCN(CCO)CC4)sc3n2)cc1 [Compound 1015, 2-(4-(5-(4-(methylsulfonyl)phenyl)thiazolo[5,4-b]pyridin-2-yl)-5,6-dihydropyridin-1(2H)-yl)ethanol] | 2
CC(C)OC(=O)N1CCC(N(C)c2nc3ccc(-c4ccc(S(C)(=O)=O)cc4)nc3s2)CC1 [Compound 1016, isopropyl 4-(methyl(5-(4-(methylsulfonyl)phenyl)thiazolo[5,4-b]pyridin-2-yl)amino)piperidine-1-carboxylate] | 0
CC(C)OC(=O)Oc1nc2ccc(-c3ccc(S(C)(=O)=O)cc3)nc2s1 [Compound 1019, isopropyl (5-(4-(methylsulfonyl)phenyl)thiazolo[5,4-b]pyridin-2-yl)carbonate] | 0
CC(C)c1noc(N2CCC(C(C)Oc3nc4ccc(-c5ccc(S(C)(=O)=O)cc5)nc4s3)CC2)n1 (stereo not shown) [Compound 1020, 3-isopropyl-5-(4-(1-((5-(4-(methylsulfonyl)phenyl)thiazolo[5,4-b]pyridin-2-yl)oxy)ethyl)piperidin-1-yl)-1,2,4-oxadiazole] | 68
CC(C)c1noc(C2CCN(c3nc4ccc(-c5ccc(S(C)(=O)=O)cc5)nc4s3)C2)n1 (stereo not shown) [Compound 1021, 3-isopropyl-5-(1-(5-(4-(methylsulfonyl)phenyl)thiazolo[5,4-b]pyridin-2-yl)pyrrolidin-3-yl)-1,2,4-oxadiazole] | 13
CC(C)c1noc(C2CCN(c3nc4ccc(-c5ccc(C(=O)N(C)C)cc5)nc4s3)CC2)n1 [Compound 1022, 4-(2-(4-(3-isopropyl-1,2,4-oxadiazol-5-yl)piperidin-1-yl)thiazolo[5,4-b]pyridin-5-yl)-N,N-dimethylbenzamide] | 35
COCCNC(=O)c1ccc(-c2ccc3nc(N4CCC(c5nc(C(C)C)no5)CC4)sc3n2)cc1 [Compound 1024, 4-(2-(4-(3-isopropyl-1,2,4-oxadiazol-5-yl)piperidin-1-yl)thiazolo[5,4-b]pyridin-5-yl)-N-(2-methoxyethyl)benzamide] | 53
CC(C)c1noc(C2CCN(c3nc4ccc(Nc5ccc(S(C)(=O)=O)c(F)c5)nc4s3)CC2)n1 [Compound 1025, N-(3-fluoro-4-(methylsulfonyl)phenyl)-2-(4-(3-isopropyl-1,2,4-oxadiazol-5-yl)piperidin-1-yl)thiazolo[5,4-b]pyridin-5-amine] | 12
Cc1ccc(S(=O)(=O)N2CC=C(c3nc4ccc(-c5ccc(S(C)(=O)=O)cc5)nc4s3)CC2)cc1 [Compound 1026, 5-(4-(methylsulfonyl)phenyl)-2-(1-tosyl-1,2,3,6-tetrahydropyridin-4-yl)thiazolo[5,4-b]pyridine] | 5
CN(C)C(=O)N1CC=C(c2nc3ccc(-c4ccc(S(C)(=O)=O)cc4)nc3s2)CC1 [Compound 1027, N,N-dimethyl-4-(5-(4-(methylsulfonyl)phenyl)thiazolo[5,4-b]pyridin-2-yl)-5,6-dihydropyridine-1(2H)-carboxamide] | 3
CN(C)C(=O)N1CCC(c2nc3ccc(-c4ccc(S(C)(=O)=O)cc4)nc3s2)CC1 [Compound 1028, N,N-dimethyl-4-(5-(4-(methylsulfonyl)phenyl)thiazolo[5,4-b]pyridin-2-yl)piperidine-1-carboxamide] | 2
CC(C)c1noc(C2CCN(c3nc4ccc(-c5ccc(C(=O)N6CCOCC6)cc5)nc4s3)CC2)n1 [Compound 1029, (4-(2-(4-(3-isopropyl-1,2,4-oxadiazol-5-yl)piperidin-1-yl)thiazolo[5,4-b]pyridin-5-yl)phenyl)(morpholino)methanone] | 47
CC(C)c1noc(N2CCC([C@H](C)Oc3nc4ccc(-c5ccc(S(C)(=O)=O)cc5)nc4s3)CC2)n1 [Compound 1031, (S)-3-isopropyl-5-(4-(1-((5-(4-(methylsulfonyl)phenyl)thiazolo[5,4-b]pyridin-2-yl)oxy)ethyl)piperidin-1-yl)-1,2,4-oxadiazole] | 76
CC(C)c1noc(N2CCC([C@@H](C)Oc3nc4ccc(-c5ccc(S(C)(=O)=O)cc5)nc4s3)CC2)n1 [Compound 1032, (R)-3-isopropyl-5-(4-(1-((5-(4-(methylsulfonyl)phenyl)thiazolo[5,4-b]pyridin-2-yl)oxy)ethyl)piperidin-1-yl)-1,2,4-oxadiazole] | 13

Same assay, conditions: cAMP

SMILES | EC50 [µM]
CC(C)c1noc(N2CCC(C(C)Oc3nc4ccc(-c5ccc(S(C)(=O)=O)cc5)nc4s3)CC2)n1 (stereo not shown) [Compound 1020, 3-isopropyl-5-(4-(1-((5-(4-(methylsulfonyl)phenyl)thiazolo[5,4-b]pyridin-2-yl)oxy)ethyl)piperidin-1-yl)-1,2,4-oxadiazole] | 0.1 to 0.5
CC(C)c1noc(N2CCC([C@H](C)Oc3nc4ccc(-c5ccc(S(C)(=O)=O)cc5)nc4s3)CC2)n1 [Compound 1031, (S)-3-isopropyl-5-(4-(1-((5-(4-(methylsulfonyl)phenyl)thiazolo[5,4-b]pyridin-2-yl)oxy)ethyl)piperidin-1-yl)-1,2,4-oxadiazole] | 0.05 to 0.1

Reference: patent US10526345B2, “Compounds as GPR119 agonists” (Mankind Pharma Ltd., priority 2016, dated 2020)
